Assay results: ChEMBL document CHEMBL4130348, “Structure-activity relationship investigation for benzonaphthyridinone derivatives as novel potent Bruton's tyrosine kinase (BTK) irreversible inhibitors” (Eur J Med Chem, 2017)
Active and inactive are the calls of the source. The rule behind the calls is not given here.

Columns and labels:
[1] = target: T1, Tyrosine-protein kinase BTK (Homo sapiens, UniProt Q06187); test: Inhibition of recombinant full length His-tagged human BTK expressed in baculovirus expression system using poly (4:1 Glu, Tyr) as substrate preincubated for 1 hr followed by substrate addition measured after 1 hr by ADP-glo assay
T1 sequence (Q06187 whole entry, the tested form may be a part): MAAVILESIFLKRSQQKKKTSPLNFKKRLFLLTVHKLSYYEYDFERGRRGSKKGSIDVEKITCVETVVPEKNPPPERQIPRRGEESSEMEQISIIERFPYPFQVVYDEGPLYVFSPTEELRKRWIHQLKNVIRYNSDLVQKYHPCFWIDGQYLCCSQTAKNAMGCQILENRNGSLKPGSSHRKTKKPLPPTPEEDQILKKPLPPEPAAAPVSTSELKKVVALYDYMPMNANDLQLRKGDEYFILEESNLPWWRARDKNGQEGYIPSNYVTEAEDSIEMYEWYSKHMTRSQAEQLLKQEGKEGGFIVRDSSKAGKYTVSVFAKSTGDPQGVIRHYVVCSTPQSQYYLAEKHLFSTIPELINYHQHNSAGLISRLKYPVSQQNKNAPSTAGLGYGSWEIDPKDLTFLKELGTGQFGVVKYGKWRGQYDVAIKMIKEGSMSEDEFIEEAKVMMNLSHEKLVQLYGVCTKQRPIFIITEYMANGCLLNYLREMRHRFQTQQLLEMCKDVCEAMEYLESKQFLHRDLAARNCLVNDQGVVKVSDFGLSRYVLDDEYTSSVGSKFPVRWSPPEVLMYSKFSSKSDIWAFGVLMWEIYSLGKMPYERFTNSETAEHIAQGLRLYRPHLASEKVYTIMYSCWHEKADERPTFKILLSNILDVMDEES

[2] = test system: Epidermal growth factor receptor (Homo sapiens), P00533 [T790M]; test: Inhibition of TEL-fused EGFR T790M mutant (unknown origin) expressed in mouse BA/F3 cells after 72 hrs by CellTiter-Glo assay; assay type: cell-based
Chain of Epidermal growth factor receptor (Homo sapiens), P00533 [T790M] (P00533 whole entry T790M, the tested form may be a part): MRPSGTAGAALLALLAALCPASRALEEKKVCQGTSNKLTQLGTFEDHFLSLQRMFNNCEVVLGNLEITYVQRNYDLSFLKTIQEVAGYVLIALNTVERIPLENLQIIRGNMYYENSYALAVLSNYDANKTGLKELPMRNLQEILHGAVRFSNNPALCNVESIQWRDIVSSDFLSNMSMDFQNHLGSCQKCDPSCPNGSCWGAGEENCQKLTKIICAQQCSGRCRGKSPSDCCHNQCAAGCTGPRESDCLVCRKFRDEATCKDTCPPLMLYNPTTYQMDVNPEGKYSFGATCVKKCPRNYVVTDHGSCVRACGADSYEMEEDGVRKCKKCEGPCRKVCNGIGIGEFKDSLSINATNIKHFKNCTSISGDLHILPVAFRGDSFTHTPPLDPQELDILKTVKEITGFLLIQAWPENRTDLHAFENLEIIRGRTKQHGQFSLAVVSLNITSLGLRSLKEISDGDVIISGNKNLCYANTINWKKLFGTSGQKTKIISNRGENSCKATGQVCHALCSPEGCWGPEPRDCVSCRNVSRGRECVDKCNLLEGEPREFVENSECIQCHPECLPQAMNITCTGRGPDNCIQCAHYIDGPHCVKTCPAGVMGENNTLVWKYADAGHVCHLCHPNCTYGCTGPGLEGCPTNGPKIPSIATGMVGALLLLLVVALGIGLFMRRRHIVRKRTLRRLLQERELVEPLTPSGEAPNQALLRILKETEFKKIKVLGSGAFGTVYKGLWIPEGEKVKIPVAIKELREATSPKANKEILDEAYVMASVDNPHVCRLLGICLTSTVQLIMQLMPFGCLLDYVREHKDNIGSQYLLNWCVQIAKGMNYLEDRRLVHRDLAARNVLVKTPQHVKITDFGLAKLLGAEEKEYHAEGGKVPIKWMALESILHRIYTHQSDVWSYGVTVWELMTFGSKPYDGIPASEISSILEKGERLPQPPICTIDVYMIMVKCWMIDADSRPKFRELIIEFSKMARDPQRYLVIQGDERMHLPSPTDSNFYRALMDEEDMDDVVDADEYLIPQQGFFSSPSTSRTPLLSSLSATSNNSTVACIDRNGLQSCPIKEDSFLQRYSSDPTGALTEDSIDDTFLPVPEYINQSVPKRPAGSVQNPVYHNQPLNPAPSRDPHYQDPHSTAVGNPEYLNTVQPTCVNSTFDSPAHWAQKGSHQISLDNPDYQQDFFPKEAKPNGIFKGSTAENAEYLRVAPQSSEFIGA

[3] = test system: Epidermal growth factor receptor (Homo sapiens), P00533 [L858R,T790M]; test: Inhibition of TEL-fused EGFR T790M/L858R mutant (unknown origin) expressed in mouse BA/F3 cells after 72 hrs by CellTiter-Glo assay; assay type: cell-based
Chain of Epidermal growth factor receptor (Homo sapiens), P00533 [L858R,T790M] (P00533 whole entry T790M/L858R, looked up, the tested form may be a part): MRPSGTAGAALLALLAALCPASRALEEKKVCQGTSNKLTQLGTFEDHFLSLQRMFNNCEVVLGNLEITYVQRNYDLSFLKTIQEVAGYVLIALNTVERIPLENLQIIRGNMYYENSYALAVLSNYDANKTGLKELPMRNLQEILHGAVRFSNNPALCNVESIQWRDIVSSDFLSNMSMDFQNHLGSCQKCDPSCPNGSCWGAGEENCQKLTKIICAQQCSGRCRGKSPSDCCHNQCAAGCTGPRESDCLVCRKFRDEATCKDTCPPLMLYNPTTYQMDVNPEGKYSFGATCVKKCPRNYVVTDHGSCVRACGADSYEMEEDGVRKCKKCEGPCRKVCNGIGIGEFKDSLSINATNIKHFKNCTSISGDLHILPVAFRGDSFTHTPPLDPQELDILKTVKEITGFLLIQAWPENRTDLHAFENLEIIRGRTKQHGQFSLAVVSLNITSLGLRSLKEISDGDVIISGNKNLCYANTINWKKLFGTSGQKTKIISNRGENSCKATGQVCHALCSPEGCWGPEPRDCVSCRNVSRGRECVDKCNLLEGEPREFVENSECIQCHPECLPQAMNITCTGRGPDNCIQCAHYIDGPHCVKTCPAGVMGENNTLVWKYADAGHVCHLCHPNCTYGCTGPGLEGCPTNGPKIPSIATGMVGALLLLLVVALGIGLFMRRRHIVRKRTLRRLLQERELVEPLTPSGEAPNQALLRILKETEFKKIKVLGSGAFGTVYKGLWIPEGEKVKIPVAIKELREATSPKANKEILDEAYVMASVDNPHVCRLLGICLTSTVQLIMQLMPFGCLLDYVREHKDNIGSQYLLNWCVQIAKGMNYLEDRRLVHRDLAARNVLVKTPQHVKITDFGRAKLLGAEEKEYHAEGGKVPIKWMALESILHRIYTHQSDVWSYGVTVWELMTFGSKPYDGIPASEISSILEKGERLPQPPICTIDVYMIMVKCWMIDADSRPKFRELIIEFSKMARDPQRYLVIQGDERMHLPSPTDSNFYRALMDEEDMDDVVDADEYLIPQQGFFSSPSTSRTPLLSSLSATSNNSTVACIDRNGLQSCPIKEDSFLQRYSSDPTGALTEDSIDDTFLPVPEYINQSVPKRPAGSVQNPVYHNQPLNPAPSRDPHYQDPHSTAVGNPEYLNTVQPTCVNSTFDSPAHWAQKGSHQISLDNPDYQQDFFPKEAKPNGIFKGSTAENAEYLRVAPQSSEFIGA

A549 = test: Antiproliferative activity against human A549 cells after 72 hrs by CellTiter-Glo assay; assay type: functional; conditions: A549, 72 h
DU-145 = test: Antiproliferative activity against human DU145 cells after 72 hrs by CellTiter-Glo assay; assay type: functional; conditions: DU-145, 72 h
LNCaP C4-2 = test: Antiproliferative activity against human C4-2 cells after 72 hrs by CellTiter-Glo assay; assay type: functional; conditions: LNCaP C4-2, 72 h
NAMALVA = test: Antiproliferative activity against human NAMALWA cells after 72 hrs by CellTiter-Glo assay; assay type: functional
NALM-6 = test: Antiproliferative activity against human NALM6 cells after 72 hrs by CellTiter-Glo assay; assay type: functional; conditions: NALM-6, 72 h
U-937 = test: Antiproliferative activity against human U937 cells after 72 hrs by CellTiter-Glo assay; assay type: functional; conditions: U-937, 72 h
[4] = Antiproliferative activity against human PF138 cells after 72 hrs by CellTiter-Glo assay; assay type: functional
MOLM-14 = test: Antiproliferative activity against human MOLM14 cells after 72 hrs by CellTiter-Glo assay; assay type: functional; conditions: MOLM-14, 72 h
CMK = test: Antiproliferative activity against human CMK cells after 72 hrs by CellTiter-Glo assay; assay type: functional
NOMO-1 = test: Antiproliferative activity against human NOMO1 cells after 72 hrs by CellTiter-Glo assay; assay type: functional; conditions: NOMO-1, 72 h
OCI-AML2 = test: Antiproliferative activity against human OCI-AML2 cells after 72 hrs by CellTiter-Glo assay; assay type: functional; conditions: OCI-AML2, 72 h
JVM-2 = test: Antiproliferative activity against human JVM2 cells after 72 hrs by CellTiter-Glo assay; assay type: functional; conditions: JVM-2, 72 h
cells [5] = assay type: functional; conditions: Homo sapiens, CLL cell, 72 h
cells [6] = assay type: functional; conditions: Homo sapiens, CLL cell, 72 h; remark: listed apart in the source
[7] = target: Cytoplasmic tyrosine-protein kinase BMX (Homo sapiens, UniProt P51813); test: Inhibition of recombinant full length His-tagged human BMX expressed in baculovirus expression system using poly (4:1 Glu, Tyr) as substrate preincubated for 1 hr followed by substrate addition measured after 1 hr by ADP-glo assay
Chain of Cytoplasmic tyrosine-protein kinase BMX (P51813 whole entry): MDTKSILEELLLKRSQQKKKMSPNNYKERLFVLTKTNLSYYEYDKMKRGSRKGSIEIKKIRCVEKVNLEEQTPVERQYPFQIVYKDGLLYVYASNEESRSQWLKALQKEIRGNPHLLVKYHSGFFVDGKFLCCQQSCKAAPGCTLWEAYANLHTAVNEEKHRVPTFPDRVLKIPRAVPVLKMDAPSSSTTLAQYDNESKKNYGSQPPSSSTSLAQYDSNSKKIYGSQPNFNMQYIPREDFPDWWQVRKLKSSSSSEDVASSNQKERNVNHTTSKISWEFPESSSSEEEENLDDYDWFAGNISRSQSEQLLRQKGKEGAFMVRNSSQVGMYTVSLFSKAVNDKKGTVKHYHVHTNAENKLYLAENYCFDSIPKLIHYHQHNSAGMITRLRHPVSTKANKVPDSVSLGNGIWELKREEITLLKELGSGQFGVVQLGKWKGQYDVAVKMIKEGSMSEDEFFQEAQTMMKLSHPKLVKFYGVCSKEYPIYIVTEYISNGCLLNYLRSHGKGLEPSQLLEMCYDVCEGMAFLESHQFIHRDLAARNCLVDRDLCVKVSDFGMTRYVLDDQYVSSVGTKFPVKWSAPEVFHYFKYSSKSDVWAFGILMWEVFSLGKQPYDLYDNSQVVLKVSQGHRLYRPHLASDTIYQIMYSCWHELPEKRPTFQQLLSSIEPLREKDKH

[8] = target: Tyrosine-protein kinase Blk (Homo sapiens, UniProt P51451); test: Inhibition of recombinant full length His-tagged human BLK expressed in baculovirus expression system using poly (4:1 Glu, Tyr) as substrate preincubated for 1 hr followed by substrate addition measured after 1 hr by ADP-glo assay
Chain of Tyrosine-protein kinase Blk (P51451 whole entry, the tested form may be a part): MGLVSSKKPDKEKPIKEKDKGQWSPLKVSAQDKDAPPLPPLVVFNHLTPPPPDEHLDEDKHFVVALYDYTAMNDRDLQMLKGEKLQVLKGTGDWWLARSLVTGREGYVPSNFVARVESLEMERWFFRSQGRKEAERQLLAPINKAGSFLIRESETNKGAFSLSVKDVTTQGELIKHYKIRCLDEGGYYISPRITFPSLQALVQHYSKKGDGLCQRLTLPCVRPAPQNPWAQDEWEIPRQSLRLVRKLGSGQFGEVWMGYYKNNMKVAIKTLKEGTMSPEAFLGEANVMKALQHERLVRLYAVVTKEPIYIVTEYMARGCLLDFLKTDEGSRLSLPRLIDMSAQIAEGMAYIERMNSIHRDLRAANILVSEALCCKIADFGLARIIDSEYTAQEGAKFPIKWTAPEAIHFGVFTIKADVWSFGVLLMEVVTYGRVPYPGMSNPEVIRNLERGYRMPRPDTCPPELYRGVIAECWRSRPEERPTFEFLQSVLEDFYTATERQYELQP

[9] = target: T1, Tyrosine-protein kinase BTK; test: Irreversible binding affinity to recombinant full length His-tagged human BTK expressed in baculovirus expression system assessed as modification of Cys481 residue containing fragment at 100 uM after 1 hr by LC/MS-MS method
[10] = target: T1, Tyrosine-protein kinase BTK; test: Irreversible inhibition of recombinant full length His-tagged human BTK expressed in baculovirus expression system using poly (4:1 Glu, Tyr) as substrate preincubated for 2 to 60 mins followed by substrate addition measured after 1 hr by ADP-glo assay
[11] = target: T1, Tyrosine-protein kinase BTK; test: Irreversible inhibition of recombinant full length His-tagged human BTK expressed in baculovirus expression system using poly (4:1 Glu, Tyr) as substrate assessed as ratio of Kinact to Ki preincubated for 2 to 60 mins followed by substrate addition measured after 1 hr by ADP-glo assay
[12] = target: T1, Tyrosine-protein kinase BTK; test: Inhibition of BTK autophosphorylation at Y223 in anti-IgM stimulated human MOLM13 cells after 4 hrs by chemiluminescence assay
[13] = target: T1, Tyrosine-protein kinase BTK; test: Inhibition of BTK autophosphorylation at Y223 in anti-IgM stimulated human Ramos cells after 4 hrs by chemiluminescence assay; assay type: cell-based
[14] = target: T1, Tyrosine-protein kinase BTK; test: Inhibition of BTK autophosphorylation at Y223 in anti-IgM stimulated human Pfeiffer cells after 4 hrs by chemiluminescence assay; assay type: cell-based
[15] = target: T1, Tyrosine-protein kinase BTK; test: Inhibition of BTK transphosphorylation at Y551 in anti-IgM stimulated human MOLM13 cells at 100 to 1000 nM after 4 hrs by chemiluminescence assay
[16] = target: T1, Tyrosine-protein kinase BTK; test: Inhibition of BTK transphosphorylation at Y551 in anti-IgM stimulated human Ramos cells at 100 to 1000 nM after 4 hrs by chemiluminescence assay; assay type: cell-based
[17] = target: T1, Tyrosine-protein kinase BTK; test: Inhibition of BTK transphosphorylation at Y551 in anti-IgM stimulated human Pfeiffer cells at 100 to 1000 nM after 4 hrs by chemiluminescence assay; assay type: cell-based
[18] = target: T1, Tyrosine-protein kinase BTK; test: Inhibition of BTK in anti-IgM stimulated human Ramos cells assessed as decrease in PLCgamma2 phosphorylation at Y1217 after 4 hrs by chemiluminescence assay; assay type: cell-based
[19] = target: T1, Tyrosine-protein kinase BTK; test: Inhibition of BTK in anti-IgM stimulated human Pfeiffer cells assessed as decrease in PLCgamma2 phosphorylation at Y1217 at 100 to 1000 nM after 4 hrs by chemiluminescence assay; assay type: cell-based
[20] = target: T1, Tyrosine-protein kinase BTK; test: Inhibition of BTK in anti-IgM stimulated human MOLM13 cells assessed as decrease in PLCgamma2 phosphorylation at Y1217 at 100 to 1000 nM after 4 hrs by chemiluminescence assay
Pfeiffer [21] = test: Cell cycle arrest in human Pfeiffer cells assessed as accumulation at G0/G1 phase up to 10 uM after 48 hrs by propidium iodide staining-based flow cytometric method; assay type: functional
MOLM-13 [22] = test: Cell cycle arrest in human MOLM13 cells assessed as accumulation at G0/G1 phase up to 10 uM after 48 hrs by propidium iodide staining-based flow cytometric method; assay type: functional
Ramos [23] = test: Induction of apoptosis in human Ramos cells assessed as PARP cleavage up to 10 uM after 48 hrs by immunoblot method; assay type: functional, cell-based
Ramos [24] = test: Induction of apoptosis in human Ramos cells assessed as caspase-3 cleavage up to 10 uM after 48 hrs by immunoblot method; assay type: functional, cell-based
MOLM-13 [25] = test: Induction of apoptosis in human MOLM13 cells assessed as PARP cleavage up to 10 uM after 48 hrs by immunoblot method; assay type: functional, cell-based
MOLM-13 [26] = test: Induction of apoptosis in human MOLM13 cells assessed as caspase-3 cleavage up to 10 uM after 48 hrs by immunoblot method; assay type: functional, cell-based
Pfeiffer [27] = test: Induction of apoptosis in human Pfeiffer cells assessed as PARP cleavage up to 10 uM after 48 hrs by immunoblot method; assay type: functional, cell-based
Pfeiffer [28] = test: Induction of apoptosis in human Pfeiffer cells assessed as caspase-3 cleavage up to 10 uM after 48 hrs by immunoblot method; assay type: functional, cell-based

SMILES: CCC(=O)Nc1cc(-n2c(=O)ccc3cnc4ccc(-n5cccn5)cc4c32)ccc1C
- IC50 [1]: 6.87 µM
- GI50 [2]: > 10 µM
- GI50 [3]: > 10 µM
- GI50 (A549): > 10 µM
- GI50 (DU-145): > 10 µM
- GI50 (LNCaP C4-2): > 10 µM
- GI50 (NAMALVA): > 10 µM
- GI50 (NALM-6): > 10 µM
- GI50 (U-937): > 10 µM
- GI50 [4]: > 10 µM
- GI50 (MOLM-14): > 10 µM
- GI50 (CMK): > 10 µM
- GI50 (NOMO-1): > 10 µM
- GI50 (OCI-AML2): > 10 µM
- GI50 (JVM-2): > 10 µM
- GI50 (cells [5]): > 10 µM
- GI50 (cells [6]): > 10 µM

SMILES: C=CC(=O)Nc1cc(-n2c(=O)ccc3cnc4ccc(-n5cccn5)cc4c32)ccc1C
- IC50 [7]: 0.083 µM
- IC50 [8]: > 10 µM
- Activity [9]: Active
- Ki [10]: 0.097 µM
- Kinact [10]: 0.07 min⁻¹
- Ratio [11]: 0.01 µM⁻¹ s⁻¹
- GI50 [2]: 0.918 µM
- GI50 [3]: 1.59 µM
- GI50 (A549): 3.7 µM
- GI50 (DU-145): > 10 µM
- GI50 (LNCaP C4-2): > 10 µM
- GI50 (NAMALVA): 4.5 µM
- GI50 (NALM-6): 1.17 µM
- GI50 (U-937): > 10 µM
- GI50 [4]: 8.8 µM
- GI50 (MOLM-14): 1.5 µM
- GI50 (CMK): 4.3 µM
- GI50 (NOMO-1): 4.9 µM
- GI50 (OCI-AML2): 7.8 µM
- GI50 (JVM-2): 3.4 µM
- GI50 (cells [5]): 10.3 µM
- GI50 (cells [6]): 2.9 µM
- EC50 [12]: < 0.1 µM
- EC50 [13]: < 0.1 µM
- EC50 [14]: < 3 µM
- inhibition [15]: inactive
- inhibition [16]: inactive
- inhibition [17]: inactive
- EC50 [18]: < 1 µM
- inhibition [19]: inactive
- inhibition [20]: inactive
- Activity (Pfeiffer [21]): Active
- Activity (MOLM-13 [22]): Active
- Activity (Ramos [23]): Active
- Activity (Ramos [24]): Active
- Activity (MOLM-13 [25]): Active
- Activity (MOLM-13 [26]): Active
- Activity (Pfeiffer [27]): Active
- Activity (Pfeiffer [28]): Active
